Assay results taken from BindingDB's records for doi:10.1021/bi0488799 (Glaxosmithkline, 2004).

Assays:
Conditions in all cases: pH 5.5; 30 °C
[1] = target: T1, Dimer of Gag-Pol polyprotein [489-587,L499I,L508Q,K509R,E524D,M525I,S526N,M535I,I539V,I543V,I551V,L552P,A560V,V571A,L579M] (Human immunodeficiency virus 1, UniProt P04585, A560V/E524D/I539V/I543V/I551V/K509R/L499I/L508Q/L552P/L579M/M525I/M535I/S526N/V571A); assay: Fluorometric Activity Assay
T1 construct: 489-587
Method: (§1) Enzymatic activity was determined with fluorogenic substrate in the presence and absence of inhibitor. The fluorescence increase due to hydrolysis of the substrate was monitored with an excitation filter of wavelength 340 nm and an emission filter of wavelength 420. Values for the inhibition constants (Ki) were determined by conventional steady-state kinetic techniques.

[2] = target: T2, Dimer of Gag-Pol polyprotein [489-587,M535I,L552P,A560V,V571F,I573V] (Human immunodeficiency virus 1, UniProt P04585, A560V/I573V/L552P/M535I/V571F); assay: Fluorometric Activity Assay
T2 construct: 489-587
Method: as §1

[3] = target: T3, Dimer of Gag-Pol polyprotein [489-587,I539V] (Human immunodeficiency virus 1, UniProt P04585, I539V); assay: Kinetic Competitive Displacement Assay
T3 construct: 489-587
Method: The method was a competitive displacement assay used to determine binding affinities of other inhibitors relative to that of GW0385. The inhibitor of unknown affinity was used to displace [3H]GW0385 from enzyme-bound [3H]GW0385 (E[3H]GW0385). From the concentration of E[3H]GW0385 at equilibrium, the concentrations of enzyme-bound and free inhibitors were calculated, and the ratio of the Ki value of the unknown to that of GW0385 was determined (Ki,unknown/Ki,GW0385).

[4] = target: T4, Dimer of Gag-Pol polyprotein [489-587] (Human immunodeficiency virus 1, UniProt P12497); assay: Fluorometric Activity Assay
T4 construct: 489-587
Method: as §1

[5] = target: T3, Dimer of Gag-Pol polyprotein [489-587,I539V]; assay: GW0385 Assay
Method: (§2) The assay method employed kinetic determinations of values for k1 and k-1, from which value of inhibition constant (Ki ) was determined (k-1/k1). The k1 is calculated from spectrofluorometric data in the presence of saquinavir. The k-1 is calculated from the time course for displacement of [3H]GW0385 from E[3H]GW0385 by nonlabeled GW0385.

[6] = target: T1, Dimer of Gag-Pol polyprotein [489-587,L499I,L508Q,K509R,E524D,M525I,S526N,M535I,I539V,I543V,I551V,L552P,A560V,V571A,L579M]; assay: GW0385 Assay
Method: as §2

CNC(=O)OCCCC(C)(C)CN(C[C@@H](O)[C@H](Cc1ccccc1)NC(=O)O[C@H]1CO[C@H]2OCC[C@H]21)S(=O)(=O)c1ccc2c(c1)OCO2 [(3R,3aS,6aR)-hexahydrofuro[2,3-b]furan-3-yl N-[(2S,3R)-4-[2H-1,3-benzodioxole-5-({2,2-dimethyl-5-[(methylcarbamoyl)oxy]pentyl})sulfonamido]-3-hydroxy-1-phenylbutan-2-yl]carbamate]
Ki [1]: 54.4 pM | Ki [2]: 25 pM | Ki [3]: 27 pM

CC(C)CN(C[C@@H](O)[C@H](Cc1ccc(OCCc2cccs2)cc1)NC(=O)O[C@H]1CO[C@H]2OCC[C@H]21)S(=O)(=O)c1ccc2c(c1)OCO2 [(3R,3aS,6aR)-hexahydrofuro[2,3-b]furan-3-yl N-[(2S,3R)-4-[2H-1,3-benzodioxole-5-(2-methylpropyl)sulfonamido]-3-hydroxy-1-{4-[2-(thiophen-2-yl)ethoxy]phenyl}butan-2-yl]carbamate]
Ki [1]: 2.4 pM | Ki [3]: 3.9 pM

CC(C)CN(C[C@@H](O)[C@H](Cc1ccc(OCc2ccccn2)cc1)NC(=O)O[C@H]1CO[C@H]2OCC[C@H]21)S(=O)(=O)c1ccc2c(c1)OCO2 [(3R,3aS,6aR)-hexahydrofuro[2,3-b]furan-3-yl N-[(2S,3R)-4-[2H-1,3-benzodioxole-5-(2-methylpropyl)sulfonamido]-3-hydroxy-1-[4-(pyridin-2-ylmethoxy)phenyl]butan-2-yl]carbamate]
Ki [1]: 1.7 pM | Ki [3]: 2.6 pM

CC(C)CN(C[C@@H](O)[C@H](Cc1ccccc1)NC(=O)O[C@H]1CCOC1)S(=O)(=O)c1ccc(N)cc1 [VX-478]
Ki [4]: 57 pM

CCOC(=O)NCCCCC(C)(C)CN(C[C@@H](O)[C@H](Cc1ccccc1)NC(=O)O[C@H]1CO[C@H]2OCC[C@H]21)S(=O)(=O)c1ccc2c(c1)OCO2 [(3R,3aS,6aR)-hexahydrofuro[2,3-b]furan-3-yl N-[(2S,3R)-4-[2H-1,3-benzodioxole-5-({6-[(ethoxycarbonyl)amino]-2,2-dimethylhexyl})sulfonamido]-3-hydroxy-1-phenylbutan-2-yl]carbamate]
Ki [1]: 1.2 pM | Ki [2]: 4.3 pM | Ki [3]: 4.6 pM

Cc1nc(COc2ccc(C[C@H](NC(=O)O[C@H]3CO[C@H]4OCC[C@H]43)[C@H](O)CN(CC(C)C)S(=O)(=O)c3ccc4c(c3)OCO4)cc2)cs1 [[3H]GW0385]
Ki [5]: 2 pM | Ki [6]: 3.4 pM
